Measurements published in patent US20090181110A1, “Compositions from Garcinia as Aromatase Inhibitors for Breast Cancer Chemoprevention and Chemotherapy” (THE OHIO STATE UNIVERSITY RESEARCH FOUNDATION, priority 2007, published 2009).
Converted amounts (≈) assume the structure as drawn. “And” between values parts separate entries of the source, which are not always exact repeats. Equal values may be shown once. Read-outs that look alike come from different tables or passages of the source. Blank lines part the entries; values can stand above or below the molecule they belong to.

Experiments:
[1] = target: T1, aromatase (human placental microsomes) (Homo sapiens, UniProt P11511); assay: Noncellular, enzyme-based, microsomal aromatase bioassay; format: biochemical; conditions: for Noncellular Bioassay PCA 20 μg/mL: percent control activity; for IC50: six concentrations 1-100 μM;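 as to all read-outs here: aromatase activity read as tritiated water release by scintillation counting after 15 min at 37 °C, relative to DMSO vehicle, with boiled microsomes giving background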
T1 construct: Microsomes were obtained from the remaining tissue as described; from tissue; host or cells: human term placenta (microsomal fraction)
T1 sequence (P11511 1-503): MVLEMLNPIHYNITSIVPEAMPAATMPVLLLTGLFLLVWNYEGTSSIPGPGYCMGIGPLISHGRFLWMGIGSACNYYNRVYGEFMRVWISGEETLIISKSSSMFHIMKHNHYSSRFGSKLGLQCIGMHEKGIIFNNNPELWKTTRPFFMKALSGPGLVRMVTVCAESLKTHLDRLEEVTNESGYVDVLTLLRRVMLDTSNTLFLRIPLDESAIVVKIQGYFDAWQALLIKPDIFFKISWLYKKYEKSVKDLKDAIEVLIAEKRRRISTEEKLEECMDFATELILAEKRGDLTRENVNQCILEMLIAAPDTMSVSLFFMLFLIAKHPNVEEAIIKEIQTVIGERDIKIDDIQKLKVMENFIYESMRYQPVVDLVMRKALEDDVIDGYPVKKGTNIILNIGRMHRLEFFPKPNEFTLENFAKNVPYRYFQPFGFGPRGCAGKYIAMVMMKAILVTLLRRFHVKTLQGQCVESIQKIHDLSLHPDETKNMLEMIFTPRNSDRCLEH

[2] = tested on: SK-BR-3 cells; assay: SK-BR-3 cell-based cytotoxicity bioassay (MTT cell viability); design: species or system human; conditions: 50 μM
[3] = target: T2, aromatase in SK-BR-3 cells (Homo sapiens, UniProt P11511); assay: SK-BR-3 cell-based aromatase bioassay
T2 construct: SK-BR-3 hormone-independent human breast cancer cells that overexpress aromatase; endogenous in cells; host or cells: SK-BR-3 human breast cancer cells
T2 sequence (P11511 1-503): T1 sequence (P11511 1-503)

[4] = tested on: quinone reductase; assay: Quinone reductase (QR) induction assay in Hepa 1c1c7 cells; format: cell-based, murine
From the text: Thus compound 21 is a candidate for use as a cancer chemopreventive agent.

[5] = Peroxynitrite scavenging activity, authentic ONOO−
Method: (§1) ONOO-scavenging activity was measured by monitoring the oxidation of nonfluorescent DHR 123 to highly fluorescent rhodamine 123 using the modified method of Kooy et al. Briefly, DHR 123 (5 mM) in EtOH, purged with nitrogen, was stored at −80° C. as a stock solution. This solution was not exposed to light, prior to the study. The rhodamine buffer (pH 7.4) consisted of 50 mM sodium phosphate dibasic, 50 mM sodium phosphate monobasic, 90 mM sodium chloride, 5 mM potassium chloride, and 100 μM DTPA. The final concentration of DHR 123 was 5 μM. The buffer in this assay was prepared before use and placed on ice. The concentrations of compounds tested were in the range from 0.2 to 100 μM in 10% DMSO. The background and final fluorescent intensities were measured 5 min after treatment with and without the addition of authentic ONOO— in 0.3 N sodium hydroxide (10 μM) or SIN-1 in deionized water (10 μM). DHR 123 was oxidized rapidly by ONOO—, superoxide anion (O2.-), and nitric oxide (NO.). The fluorescence intensity of oxidized DHR 123 was measured with an LS55 luminescence spectrometer (Perkin-Elmer, Boston, Mass.) at the excitation and emission wavelengths of 480 and 530 nm, respectively. […] DL-Penicillamine was used as a positive control.

[6] = Peroxynitrite scavenging activity, SIN-1-derived ONOO−
Method: as §1

[7] = tested on: DMBA-induced preneoplastic lesions; assay: Mouse mammary organ culture (MMOC) assay; format: cell-based; conditions: for percent inhibition of DMBA-induced preneoplastic lesions: 10 μg/mL
Method: This assay was carried out according to an established protocol disclosed in the art. In brief, 4-week-old BALB/c female mice (Charles River, Wilmington, Mass.) were pretreated for 9 days with 1 μg of estradiol and 1 mg of progesterone. On the 10th day, the mice were sacrificed and the second pair of thoracic mammary glands was dissected on silk and transferred to 60 mm culture dishes containing 5 mL of Waymouth's 752/1 MB medium supplemented with streptomycin, penicillin, and L-glutamine. The glands were incubated for 10 days (37° C., 95% O2 and 5% CO2) in the presence of growth-promoting hormones (5 μg of insulin, 5 μg of prolactin, 1 μg of aldosterone, and 1 μg of hydrocortisone per milliliter of medium). Glands were exposed to 2 μg/mL 7,12-dimethylbenz[a]anthracene (DMBA) between 72 and 96 h. After their exposure, glands were rinsed and transferred to new dishes with fresh medium. The fully differentiated glands were then permitted to regress by withdrawing all hormones except insulin for 14 additional days. Test compounds were present in the medium during days 1-10 of culture; mammary glands were scored for the incidence of lesions.

[8] = tested on: preneoplastic lesions (aberrant crypt foci); conditions: recent work, background statement, cited from earlier work
[9] = tested on: DMBA-induced preneoplastic lesions; conditions: background statement; cited from earlier work

Molecule: COc1ccc([C@@H]2COc3c(ccc4c3C=CC(C)(C)O4)C2)c(O)c1 [4′O-methylglabridin]
aromatase inhibiting activity, in words [1]: show results that are supportive of these compounds having utility as aromatase inhibitors

Molecule: CC(C)=CCc1c(O)cc2oc3ccc4c(c3c(=O)c2c1O)C(O)C(C(C)(C)O)O4 (stereo not drawn) [Compound 21, 1,2-dihydro-1,8,10-trihydroxy-2-(2-hydroxypropan-2-yl)-9-(3-methylbut-2-enyl)furo[3,2-a]xanthen-11-one]
CD (concentration required to double QR induction activity) [4]: 1.3 µg/mL

Molecule: CC(C)=CCc1c(O)cc2oc3ccc(O)c(CC=C(C)C)c3c(=O)c2c1O [Compound 23, 1,3,7-trihydroxy-2,8-di-(3-methylbut-2-enyl)xanthone]
CD (concentration required to double QR induction activity) [4]: 0.68 µg/mL

Molecule: CC(C)=CCc1c(O)ccc2oc3cc4c(c(O)c3c(=O)c12)CC(C(C)(C)O)O4 (stereo not drawn) [Compound 22, 2,3-dihydro-4,7-dihydroxy-2-(2-hydroxypropan-2-yl)-6-(3-methylbut-2-enyl)furo[3,2-b]xanthen-5-one]
CD (concentration required to double QR induction activity) [4]: 2.2 µg/mL

Molecule: O=C(/C=C/c1ccc(O)cc1)c1ccc(O)cc1O [isoliquiritigenin, reference compound]
CD (concentration required to double QR induction activity) [4]: 1.1 µg/mL

Molecule: COc1c(O)cc2oc3cc(O)c(CC=C(C)C)c(O)c3c(=O)c2c1CC=C(C)C [Compound 10, α-mangostin]
IC50 in dose-response MMOC assay [7]: 1.0 mg/L (≈ 2.44 µM)
percent inhibition of DMBA-induced preneoplastic lesions [7]: 57.1%
IC50 ([7]; same value in μM, read-out: IC50 in dose-response MMOC assay): 2.44 µM
inhibition of preneoplastic lesions in colon carcinogenesis model, in words [8]: suppress the carcinogen-induced formation of aberrant crypt foci
inhibition of preneoplastic lesions in colon carcinogenesis model, in words ([8]; listed as crude α-mangostin (10) preparation): efficacy in inhibiting preneoplastic lesions
alveolar duct formation in mouse mammary organ culture model, in words [9]: inhibit alveolar duct formation
aromatase inhibiting activity, in words [1]: greatest aromatiase inhibiting activity
Noncellular Bioassay PCA 20 μg/mL [1]: 22.2 PCA
IC50 [1]: 20.7 µM
Cytotoxicity % cell surv. [2]: 18.4%
antioxidant activity, in words (authentic ONOO−) [5]: potent antioxidant activity
Cell-based Bioassay PCA 50 μM [3]: 59.4 PCA
antioxidant activity, in words (SIN-1-derived ONOO−) [6]: potent antioxidant activity

Molecule: CC(C)=CCc1c(O)cc2oc3cc(O)c(O)c(CC=C(C)C)c3c(=O)c2c1O [Compound 11, γ-mangostin]
percent inhibition of DMBA-induced preneoplastic lesions [7]: 42.9%
aromatase inhibiting activity, in words [1]: greatest aromatiase inhibiting activity
Noncellular Bioassay PCA 20 μg/mL [1]: 4.7 PCA
IC50 [1]: 6.88 µM and 6.9 µM
antioxidant activity, in words (authentic ONOO−) [5]: potent antioxidant activity
IC50 [3]: 4.97 ± 1.9 µM
Cell-based Bioassay PCA 50 μM [3]: −0.5 PCA
antioxidant activity, in words (SIN-1-derived ONOO−) [6]: potent antioxidant activity

Molecule: COc1c(O)cc2oc3cc4c(c(O)c3c(=O)c2c1CC=C(C)C)C=CC(C)(C)O4 [Compound 24, mangostanin]
CD (concentration required to double QR induction activity) [4]: 0.95 µg/mL

Molecule: CC(C)=CCc1cc(/C=C/C(=O)c2ccc3c(c2O)C=CC(C)(C)O3)ccc1O [paratocarpin B]
aromatase inhibiting activity, in words [1]: show results that are supportive of these compounds having utility as aromatase inhibitors

Molecule: 8-hydroxycudraxanthone G [Compound 1]
Noncellular Bioassay PCA 20 μg/mL [1]: 55.1 PCA
antioxidant activity, in words (authentic ONOO−) [5]: potent antioxidant activity
antioxidant activity, in words (SIN-1-derived ONOO−) [6]: potent antioxidant activity

The next lines start with results.

aromatase inhibiting activity, in words [1]: greatest aromatiase inhibiting activity
Noncellular Bioassay PCA 20 μg/mL [1]: 23.9 PCA
IC50 [1]: 25.1 µM
Cell-based Bioassay PCA 50 μM [3]: 32.3 PCA
Molecule: garcinone E [Compound 7]
Cytotoxicity % cell surv. [2]: 52.3%

Noncellular Bioassay PCA 20 μg/mL [1]: 80.8 PCA
Molecule: CC(C)=CCC/C(C)=C/Cc1c(O)cc2oc3c(O)ccc(O)c3c(=O)c2c1O [Compound 13, smeathxanthone A]
antioxidant activity, in words (authentic ONOO−) [5]: potent antioxidant activity
antioxidant activity, in words (SIN-1-derived ONOO−) [6]: potent antioxidant activity

Noncellular Bioassay PCA 20 μg/mL [1]: 75.9 PCA
Molecule: CC(C)=CCc1c(O)c(CC=C(C)C)c2oc3c(O)ccc(O)c3c(=O)c2c1O [Compound 8, gartanin]

Noncellular Bioassay PCA 20 μg/mL [1]: 52.6 PCA
Molecule: 1-isomangostin [Compound 9]

aromatase inhibiting activity, in words [1]: greatest aromatiase inhibiting activity
Noncellular Bioassay PCA 20 μg/mL [1]: 10.0 PCA
IC50 [1]: 5.16 µM and 5.2 µM
Cell-based Bioassay PCA 50 μM [3]: 50.7 PCA
Molecule: COc1c(O)cc2oc3cc(O)c(CC=C(C)C)c(O)c3c(=O)c2c1CCC(C)(C)O [Compound 6, garcinone D]
Cytotoxicity % cell surv. [2]: 89.4%

Noncellular Bioassay PCA 20 μg/mL [1]: 78.8 PCA
Molecule: CC(C)=CCC/C(C)=C/Cc1c(O)cc2oc3c(O)cccc3c(=O)c2c1O [Compound 12, mangostinone]

Cell-based Bioassay PCA (positive control) ([3]; 10 nM letrozole): 7.4 PCA
Molecule: N#Cc1ccc(C(c2ccc(C#N)cc2)n2cncn2)cc1 [LET, Letrozole, reference compound]

Noncellular Bioassay PCA 20 μg/mL [1]: 82.6 PCA
Molecule: 8-deoxygartanin [Compound 4]

Noncellular Bioassay PCA 20 μg/mL [1]: 57.8 PCA
Molecule: cudraxanthone G [Compound 3]

Noncellular Bioassay PCA 20 μg/mL [1]: 74.7 PCA
Molecule: CC(C)=CCc1c(O)cc2oc3c(CC=C(C)C)c(O)c4c(c3c(=O)c2c1O)C=CC(C)(C)O4 [Compound 14, tovophyllin A]
